Test results taken from publication PMC8286840, “Identifying SARS-CoV-2 antiviral compounds by screening for small molecule inhibitors of Nsp3 papain-like protease” (Biochemical Journal, 2021).
Counter-ions that a name gives are not always drawn. Like-named read-outs stand apart in the source and are kept apart here.

Experiments:
[1] = target: T1, SARS-CoV-2 PLpro (nsp3 1564–1878) (Severe acute respiratory syndrome coronavirus 2, UniProt P0DTD1); assay: biochemical; set-up: FRET-quenched peptide (Pro3) cleavage by PLpro, 10 min pre-incubation, slope over 20 min, normalised to no-compound control; settings: high concentration screen, read-out: % of control remaining
[2] = target: T1, SARS-CoV-2 PLpro (nsp3 1564–1878); assay: biochemical; set-up: FRET-quenched peptide (Pro3) cleavage by PLpro, 10 min pre-incubation, slope over 20 min, normalised to no-compound control; settings: low concentration screen, read-out: % of control remaining

## CN1[C@@H]2CC[C@H]1C[C@@H](OC(c1ccccc1)c1ccccc1N)C2 (stereo partly shown) [Aminobenztropine]
[1]; Well no.=206
  remaining activity at 3.75 µM: 98.3%
[2]; Well no.=206
  remaining activity at 1.25 µM: 97.2%

## C[N+](C)(C)CCOC(N)=O [Carbamoylcholine (chloride)]
[1]; Well no.=6757
  remaining activity at 3.75 µM: 97.3%
[2]; Well no.=6757
  remaining activity at 1.25 µM: 99.9%

## N=C(N)NC(=O)Cc1c(Cl)cccc1Cl [Guanfacine (hydrochloride)]
[1]; Well no.=6275
  remaining activity at 3.75 µM: 102%
[2]; Well no.=6275
  remaining activity at 1.25 µM: 101%

## Nc1ncnc2c1ncn2[C@@H]1O[C@H](C(=O)NC2CC2)[C@@H](O)[C@H]1O [5'-(N-Cyclopropyl)carboxamidoadenosine]
[1]; Well no.=86
  remaining activity at 3.75 µM: 101%
[2]; Well no.=86
  remaining activity at 1.25 µM: 99.1%

## OCCOCCN1CCN(Cc2cccc(Oc3ccccc3)c2)CC1 [ZK756326 (dihydrochloride)]
[1]; Well no.=6178
  remaining activity at 3.75 µM: 101%
[2]; Well no.=6178
  remaining activity at 1.25 µM: 99.6%
[2]; Well no.=8117
  remaining activity at 1.25 µM: 104%

## NC(N)=N[C@@H](CCC(=O)O)C(=O)O [alpha-Guanidinoglutaric acid]
[1]; Well no.=669
  remaining activity at 3.75 µM: 96.1%
[2]; Well no.=669
  remaining activity at 1.25 µM: 93.5%

## CN1CCC(=C2c3ccccc3C=Cc3ccccc32)CC1 [Cyproheptadine hydrochloride]
[1]; Well no.=38
  remaining activity at 3.75 µM: 91.5%
[2]; Well no.=38
  remaining activity at 1.25 µM: 93.9%

## O=C1c2ccccc2C(=O)c2c1ccc(O)c2O [Alizarin]
[1]; Well no.=5284
  remaining activity at 3.75 µM: 95.1%
[2]; Well no.=5284
  remaining activity at 1.25 µM: 94.6%

## CC1=C(O)C(=O)C=C2C1=CC=C1[C@@]2(C)CC[C@@]2(C)[C@@H]3C[C@](C)(C(=O)O)CC[C@]3(C)CC[C@]12C [Celastrol]
[1]; Well no.=3430
  remaining activity at 3.75 µM: 94.6%
[2]; Well no.=3430
  remaining activity at 1.25 µM: 95.7%

## Oc1ccc([C@H]2COc3cc(O)ccc3C2)cc1 [Equol]
[1]; Well no.=5252
  remaining activity at 3.75 µM: 99.3%
[2]; Well no.=5252
  remaining activity at 1.25 µM: 99.7%

## C/C1=C/CCC(C)(O)/C=C\C(C(C)C)C(OC(=O)c2ccc(O)cc2)C1 (stereo not shown) [Feroline]
[1]; Well no.=3493
  remaining activity at 3.75 µM: 99.5%
[2]; Well no.=3493
  remaining activity at 1.25 µM: 101%

## CNC(=O)c1ccccc1Nc1nc(Nc2ccc(N3CCOCC3)cc2OC)ncc1Cl [NVP-TAE226]
[1]; Well no.=4789
  remaining activity at 3.75 µM: 105%
[2]; Well no.=4789
  remaining activity at 1.25 µM: 103%

## COC(=O)[C@H](Cc1ccc([N+](=O)[O-])cc1)NC(=O)c1cccc2ccccc12 [SB 328437]
[1]; Well no.=5812
  remaining activity at 3.75 µM: 93.4%
[2]; Well no.=5812
  remaining activity at 1.25 µM: 94.2%

## Cc1ccc(NC(=O)C2(c3ccc4c(c3)OC(F)(F)O4)CC2)nc1-c1cccc(C(=O)O)c1 [VX-809]
[1]; Well no.=4961
  remaining activity at 3.75 µM: 95%
[2]; Well no.=4961
  remaining activity at 1.25 µM: 95.6%

## O=C1c2c(O)ccc(O)c2C(=O)c2c(NCCNCCO)ccc(NCCNCCO)c21 [Mitoxantrone HCl]
[1]; Well no.=4904
  remaining activity at 3.75 µM: 91.1%
[2]; Well no.=4904
  remaining activity at 1.25 µM: 93.4%

## O=C(O)c1cc(=O)c2ccccc2[nH]1 [Kynurenic acid]
[1]; Well no.=1117
  remaining activity at 3.75 µM: 99.5%
[1]; Well no.=7403
  remaining activity at 3.75 µM: 99.4%
[2]; Well no.=1117
  remaining activity at 1.25 µM: 97.8%
[2]; Well no.=7403
  remaining activity at 1.25 µM: 99.6%

## O=C(C[S+]([O-])C(c1ccccc1)c1ccccc1)NO (stereo not shown) [Adrafinil]
[1]; Well no.=6233
  remaining activity at 3.75 µM: 94.6%
[2]; Well no.=6233
  remaining activity at 1.25 µM: 102%

## NC(=O)c1noc([C@H](CCCC2CCCCC2)CC(=O)NO)n1 [UK 383367]
[1]; Well no.=8384
  remaining activity at 3.75 µM: 90.6%
[2]; Well no.=8384
  remaining activity at 1.25 µM: 90.4%

## CO[C@]1(CC[C@@H](C)CO[C@@H]2O[C@H](CO)[C@@H](O)[C@H](O)[C@H]2O)O[C@H]2C[C@H]3[C@@H]4CC=C5C[C@@H](O[C@@H]6O[C@H](CO)[C@@H](O[C@@H]7O[C@@H](C)[C@H](O)[C@@H](O)[C@H]7O)[C@H](O)[C@H]6O[C@@H]6O[C@@H](C)[C@H](O)[C@@H](O)[C@H]6O)CC[C@]5(C)[C@H]4CC[C@]3(C)[C@H]2[C@@H]1C [Methyl protodioscin]
[1]; Well no.=6208
  remaining activity at 3.75 µM: 93.7%
[2]; Well no.=6208
  remaining activity at 1.25 µM: 101%

## Cc1c2c(nn1C)CSCc1cc(n(C)n1)CSc1cc(c3ccccc3c1)OCCCc1c(C(=O)O)n(C)c3c-2c(Cl)ccc13 [AZD-5991]
[1]; Well no.=7076
  remaining activity at 3.75 µM: 98.9%
[2]; Well no.=7076
  remaining activity at 1.25 µM: 101%

## NC(=O)Nc1cc(-c2ccccc2)sc1C(N)=O [IKK-2 Inhibitor XI]
[1]; Well no.=2838
  remaining activity at 3.75 µM: 103%
[2]; Well no.=2838
  remaining activity at 1.25 µM: 99.2%

## COc1cccc(C(=O)O)c1 [3-Methoxybenzoic acid]
[1]; Well no.=6587
  remaining activity at 3.75 µM: 98.4%
[2]; Well no.=6587
  remaining activity at 1.25 µM: 100%

## CC(C)NCC(O)COc1ccc(COCCOC(C)C)cc1 (racemic)
[1]; Well no.=6415
  remaining activity at 3.75 µM: 93.2%
[2]; Well no.=6415
  remaining activity at 1.25 µM: 99.2%

## c1ccc2c(c1)CCCC2C1=NCCN1 (stereo not shown) [Tetrahydrozoline hydrochloride]
[1]; Well no.=1239
  remaining activity at 3.75 µM: 103%
[2]; Well no.=1239
  remaining activity at 1.25 µM: 103%

## COc1ccc(F)c(F)c1C(=O)c1cnc(NC2CCN(S(C)(=O)=O)CC2)nc1N [R547]
[1]; Well no.=4653
  remaining activity at 3.75 µM: 93.6%
[2]; Well no.=4653
  remaining activity at 1.25 µM: 94.4%

## NC(CCCCCP(=O)(O)O)C(=O)O (racemic)
[1]; Well no.=17
  remaining activity at 3.75 µM: 97.5%
[2]; Well no.=17
  remaining activity at 1.25 µM: 100%

## CC(=O)[C@H]1CC[C@H]2[C@@H]3CC=C4C[C@@H](OS(=O)(=O)O)CC[C@]4(C)[C@H]3CC[C@]12C [Pregnenolone sulfate sodium]
[1]; Well no.=1169
  remaining activity at 3.75 µM: 102%
[2]; Well no.=1169
  remaining activity at 1.25 µM: 101%

## NC(=O)c1ccc(-c2nc(-c3ccc4c(c3)OCCO4)c(-c3ccccn3)[nH]2)cc1 [Casein Kinase I Inhibitor, D4476]
[1]; Well no.=2372
  remaining activity at 3.75 µM: 99.2%
[2]; Well no.=2372
  remaining activity at 1.25 µM: 102%

## O=C(Nc1ncc(-c2cc(C(F)F)nn2-c2c(Cl)cccc2Cl)s1)C1CC1 [BMS-3]
[1]; Well no.=3039
  remaining activity at 3.75 µM: 96.4%
[2]; Well no.=3039
  remaining activity at 1.25 µM: 95.8%

## COc1cc(OC)cc(-c2cc3cnc(N)nc3nc2NC(=O)NC(C)(C)C)c1 [PD-166866]
[1]; Well no.=5912
  remaining activity at 3.75 µM: 96.7%
[2]; Well no.=5912
  remaining activity at 1.25 µM: 96.4%

## CCCCCCCC/C=C\CCCCCCCCCC(=O)O [11(Z)-Eicosenoic acid]
[1]; Well no.=4406
  remaining activity at 3.75 µM: 93.7%
[2]; Well no.=4406
  remaining activity at 1.25 µM: 96.4%

## Clc1cnc(Oc2ccc(Oc3ncc(Cl)cc3Cl)cc2)c(Cl)c1 [TCPOBOP]
[1]; Well no.=1425
  remaining activity at 3.75 µM: 102%
[2]; Well no.=1425
  remaining activity at 1.25 µM: 102%

## Clc1ccccc1CN1CCc2sccc2C1 [Ticlopidine]
[1]; Well no.=1746
  remaining activity at 3.75 µM: 92.5%
[2]; Well no.=1746
  remaining activity at 1.25 µM: 92.5%

## Clc1cccc(Cl)c1NC1=NCCN1 [Clonidine.HCl]
[1]; Well no.=1691
  remaining activity at 3.75 µM: 94.2%
[2]; Well no.=1691
  remaining activity at 1.25 µM: 96%

## N#C[C@H]1[C@H](O)[C@@H](CO)O[C@H]1n1ccc(N)nc1=O [CNDAC (hydrochloride)]
[1]; Well no.=7866
  remaining activity at 3.75 µM: 94.8%
[2]; Well no.=7866
  remaining activity at 1.25 µM: 91.6%
